Source: patent US4835185A, “Immunomodulator for improving commercial performance of domestic animals” (Iowa State University Research Foundation, Inc., priority 1987, dated 1989)

Experiments:
[1] = Dairy Cattle Trial: nitrogen balance, milk production and composition; type: in vivo, Holstein and Brown Swiss cows (cattle)
Source text: Eight Holstein and four Brown Swiss cows were assigned randomly (blocking for lactation number and breed) to either a control or treatment group. Four of the Holsteins and two of the Brown Swiss were in their first lactation and all cows were between 134-283 days into lactation (mid-lactation). Cows were milked twice daily (2:30 a.m. and 2:00 p.m.).
Cows were fed ad libitum a total mixed ration twice daily (7:30 a.m. and 5:30 p.m.) with feed refusals collected before the morning feeding. The diet consisted of 31% chopped alfalfa hay, 18% corn silage, and […] (as a % of the dry matter). The grain mix was calculated to contain 1.55 Mcal NE/kg dry matter and 16% crude protein. A major portion of the grain protein was from expeller processed soybean meal with higher than usual bypass characteristics. The cows were consuming protein in excess of their normal requirements. The grain ration contained an estimated 10% leucine (total protein basis), and the complete diet contained an estimated 9% leucine (total protein basis).
During the treatment period half the cows received Na-KIC at 0.75% of the diet dry matter. KIC was fed in a mixture which consisted of Na-KIC, corn gluten meal, hydrogenated soy oil and paraffin in a ratio of 2:1.0:0.1:0.1. The mixture was extruded and formed into crumbles. At least part of the KIC may have escaped rumen degradation with this treatment. Additionally, 100 units of tocopherol were added per gram of Na--KIC to prevent oxidation of KIC. Control animals were fed an equivalent amount of the same mixture but without KIC added.
During the first two weeks of the experiment (control period; designated weeks -2 and -1), all cows received the same diet. The trial period extended over the next three weeks (weeks 1, 2, 3) during which cows received either the KIC or control mix top-dressed on their diets twice per day (half the dose in the morning, half in the evening). Throughout the experiment, daily milk yield, milk composition, and feed consumption was measured for each cow. At the end of the control period and at the end of the treatment period, uninary catheters were inserted and total urine and fecal collections were made for 48 hrs. Results of production and nitrogen balance studies were analyzed statistically using each cow as her own control. The trial effect was measured by subtracting the average control period value from the value during the treatment period. ANOVA was used to detect differences between the KIC-fed and control groups.

white blood cells = experiment: White blood cell number and differential, sheep (experiments 1 and 2); type: in vivo, lambs (sheep)
Protocol: A study was conducted to determine if KIC administration can alter white blood cell function, specifically T lymphocyte function, in growing sheep and cattle. Eighteen medium-framed crossbred male lambs were used in experiment 1. Lambs were randomly assigned to either a control diet (n=10) or a diet supplemented with 1% KIC (n=8). Animals were fed ad libitum in individual cages. At 100 and 108 days of treatment, 50-ml blood samples were collected for lymphocyte and neutrophil function tests.
In experiment 2, 19 intact crossbred male lambs were randomly assigned to either a saline treatment group (n=9) or a KIC treatment group (n=10). Control lambs were injected with 50 ml of a saline solution, and KIC treated lambs were injected with 50 ml of a 5% solution of KIC (sodium salt) daily (~2.5 g KIC/day). All injections were made intraperitoneally in the right posterior abdominal region after disinfection of the area. At day 60 and day 66 of treatment, blood was collected for lymphocyte and neutrophil function tests.
Sheep in experiments 1 and 2 were fed diets based on a mixture of 48% corn, 5% molasses, 20% alfalfa meal, 0.8% limestone, 0.6% salt-mineral-vitamin mix and ~25% of a protein supplement (either soybean meal, corn gluten meal, or corn gluten feed). The diets were isonitrogenous and analyzed to be ~20% crude protein and 89% dry matter. The KIC diet consisted of the basal diet to which was added 1% calcium-KIC, whereas the control diet was the basal diet plus 0.25% calcium carbonate.
Blood was collected by jugular venapuncture into acid-citrate-dextrose anticoagulant. Lymphocytes and neutrophils were isolated, and lymphocyte blastogenesis and neutrophil function evaluated. KIC was obtained from SOBAC, Paris, France. Zein was purchased from Freeman Industries, Tuckahoe, NY. Each experiment was statistically analyzed by analysis of variance. In sheep experiments, individual animals were the experimental units, whereas pen means were analyzed in the cattle experiment.
^2 Total white blood cell number (WBC) is the cells per mm^3.

[2] = Na-KIC 0.75% of diet dry matter, pre 186

## CC(C)CC(=O)C(=O)O [KIC, alpha-ketoisocaproate]
[1]; KIC group, control +1
  Feces output, Change: -6 g N/day
[1]; KIC group, control +3
  Milk output, Change: +9 g N/day
[1]; KIC group, control +15
  Urine output, Change: 0 g N/day
[1]; KIC group, control +18
  Body storage (N balance), Change: +26 g N/day
[1]; KIC group, control +37
  Feed intake, Change: +28 g N/day
[1]; KIC group, control +.00
  Milk fat yield, Change: +.09 kg/day
[1]; KIC group, control +.03
  Milk fat percent, Change: +.21%
[1]; KIC group, control +.13
  Milk protein percent, Change: +.11%
[1]; KIC group, control -.13
  Milk yield, Change: +.97 kg/day
[1]; Na-KIC 0.75% of diet dry matter, pre 3.35
  Milk protein percent, Post: 3.46%
[1]; Na-KIC 0.75% of diet dry matter, pre 4.07
  Milk fat percent, Post: 4.27%
[1]; Na-KIC 0.75% of diet dry matter, pre 23.0
  Milk yield, Post: 23.9 kg/day
[1]; Na-KIC 0.75% of diet dry matter, pre 34
  Body storage (N balance), Post: 60 g N/day
[1]; Na-KIC 0.75% of diet dry matter, pre 131
  Milk output, Post: 140 g N/day
[1]; [2]
  Feces output, Post: 180 g N/day
  Urine output, Post: 186 g N/day
[1]; Na-KIC 0.75% of diet dry matter, pre 538
  Feed intake, Post: 566 g N/day
[1]; Na-KIC 0.75% of diet dry matter, pre printed 92
  Milk fat yield, Post: 1.00 kg/day
[1]; above controls, p<0.02
  milk fat yield increase: 10%
[1]; vs control cows
  higher milk yields: +5%
[1]; vs control cows, p<0.04
  higher percent milk fat: +4%
[1]; vs control, NS
  Body storage (N balance), % Change: +24%
  Body storage (N balance), KIC effect: +8 g N/day
  Feces output, % Change: -4%
  Feces output, KIC effect: -8 g N/day
  Feed intake, % Change: -2%
  Feed intake, KIC effect: -9 g N/day
  Milk output, % Change: +5%
  Milk output, KIC effect: +6 g N/day
  Milk protein percent, KIC effect: -.03%
  Urine output, % Change: -85
  Urine output, KIC effect: -15 g N/day
[1]; vs control, p < .01
  Milk fat yield, % Change: +10.4%
  Milk fat yield, KIC effect: +.09 kg/day
[1]; vs control, p < .04
  Milk fat percent, % Change: +4.3%
  Milk fat percent, KIC effect: +.17%
[1]; vs control, p < .15
  Milk yield, % Change: +5.1%
  Milk yield, KIC effect: +1.10 kg/day
White blood cells; Exp. 1, oral uncoated KIC 1% (control 38), p<.89
  % SEG: 39% of Total WBC
White blood cells; Exp. 1, oral uncoated KIC 1% (control 61), p<.34
  % LYM: 59% of Total WBC
White blood cells; Exp. 1, oral uncoated KIC 1% (control .7), p<.12
  % EOS: 1.7% of Total WBC
White blood cells; Exp. 2, IP injected KIC (saline 3.4), p<.01
  % EOS: 1.7% of Total WBC
White blood cells; Exp. 2, IP injected KIC (saline 41), p<.13
  % SEG: 34% of Total WBC
White blood cells; Exp. 2, IP injected KIC (saline 48), p<.04
  % LYM: 61% of Total WBC
